Assay results taken from patent publication US4192896A, “Method of using dialkylphenols in the treatment of mycoplasma diseases” (priority 1979, dated 1980).

Legend:
M. pneumoniae [1] = assay: Growth of logarithmically growing cultures of M. pneumoniae in liquid culture with 2,4-DMP (CFU/ml); type: cell-based, Mycoplasma pneumoniae, strain PI 1428; details: lower amounts (10^-5 M)
M. pneumoniae [2] = assay: Protection of tracheal explants against the M. pneumoniae infective process (overall, in words); type: cell-based
Protocol: (§1) Adult golden hamsters (approximately 140 g. male and female) were used as the tissue source. Animals appearing to be disease-free were selected. Tracheas were removed aseptically and sliced into rings. The rings were rinsed and then transfered into sterile Petri dishes containing a shallow layer of minimal essential medium (MEM, with glutamine, NaHCO3, 10% horse serum and 500 units of penicillin G/ml). These organ cultures were incubated for 24 hours at 36° C. in 5% carbon dioxide and then scored for "relative activity" (RA), a measure of explant viability. "Relative Activity" (0 to 300) is the product of the percentage of the epithelial layer which is intact (0 to 100) and the relative vigor of ciliary beating (0 to 3).
(§2) The trachea rings were infected with M. pneumonia, strain PI 1428 (originally obtained from Dr. Robert Chanock, National Institutes of Health, Bethesda, Md.) which was used in the 10th to 12th passage and was grown on G-199 medium. Tracheal explants were infected with logarithmically growing cells using methods described by Gabridge, et al. Except where otherwise noted, groups of from 3 to 6 rings were preincubated for one hour in MEM with or without an appropriate amount of 2,4-dimethylphenol prior to the addition of mycoplasmas. Following exposure to M. pneumoniae for two hours, the rings were rinsed twice in phosphate buffered saline and then placed in a sterile Petri dish containing MEM and, where indicated, the required amount of 2,4-dimethylphenol or 2,4-DMP as used herein. Cultures were incubated at 36° in 5% carbon dioxide and scored daily for RA.
(§3) Time Course: In the studies reported thus far, tracheal explants were pretreated with 2,4-DMP for one hour before exposure to M. pneumoniae. Some insight into the nature, that is, the site or mode of action, of this protective phenomenon may be gained by altering the time at which 2,4-DMP is added to the culture media.

M. pneumoniae [3] = assay: Tetrazolium reduction by hamster tracheal explants infected with M. pneumoniae; type: cell-based; details: for Tetrazolium Reduction 7 days post infection: Table 4, infecting titer 6 × 10^6 CFU/ml
Protocol: as §2, §3

M. pneumoniae [4] = assay: Relative activity of hamster tracheal explants infected with M. pneumoniae; type: cell-based; details: for Relative Activity Days Following Infection With M. Pneumoniae / Relative Activity 7 days post infection: infecting titer 6 × 10^6 CFU/ml; for Relative Activity 7 days post infection: Table 4
Protocol: as §1, §2
Infection Studies: M. pneumoniae attaches to the surface (as used herein the surface refers to in luminal epithelial lining) of the tracheal tissue within an hour or two following exposure. Decreases in the vigor of ciliary activity and loss of epithelial cells are evident within 24 to 48 hours post-infection. In most cases, little or no ciliary activity remains by the sixth or seventh day.
as §3

[5] = tested on: uninfected hamster tracheal explants; assay: Electron microscopic and histopathic examination of uninfected hamster tracheal explants exposed to 2,4-DMP; type: cell-based, golden hamster; details: 10^-3 and 10^-4 M
Protocol: as §1

[6] = culture A, 2,4 DMP added at -1 hours
[7] = culture B, 2,4 DMP added at 0 hours
[8] = culture C, 2,4 DMP added at 1 hours
[9] = culture D, 2,4 DMP added at 2 hours
[10] = culture E, 2,4 DMP added at 6 hours
[11] = culture F, 2,4 DMP added at 24 hours
[12] = culture G, 2,4 DMP added at 48 hours
[13] = culture H, 2,4 DMP added at 72 hours

Cc1ccc(O)c(C)c1 [2,4-DMP, 2,4-dimethylphenol]
effect on growth of the organism (M. pneumoniae [1]): little or no effect on the growth of the organism | protective effects on delayed addition (M. pneumoniae [2]; 2,4-DMP withheld until attachment is essentially complete): significantly reduced or abolished completely | alteration of the infectious process (M. pneumoniae [2]; concentrations less than or equal to 10^-10 M): failed to alter the infectious process | inhibiting or altering the course of the infective process, relative to the other dimethylphenol isomers (M. pneumoniae [2]; conditions of these studies and at the concentrations tested): more effective than any of the other isomers | effect on the course of infection of explants exposed to M. pneumoniae (M. pneumoniae [2]; very low concentrations in the culture media): dramatically alters the usual course of events | Tetrazolium Reduction 7 days post infection (M. pneumoniae [3]; 10^-8 moles/liter): 1.066 ± 0.035 | Tetrazolium Reduction 7 days post infection (M. pneumoniae [3]; 10^-9 moles/liter): 1.016 ± 0.029 | Tetrazolium Reduction 7 days post infection (M. pneumoniae [3]; 10^-10 moles/liter): 0.543 ± 0.142 | Tetrazolium Reduction 7 days post infection (M. pneumoniae [3]; 10^-22 moles/liter (so in the source)): 0.453 ± 0.033 | ability to reduce tetrazolium of rings exposed to M. pneumoniae compared with uninfected controls (M. pneumoniae [3]; at least 10^-9 M): indistinguishable from uninfected controls | Tetrazolium Reduction 7 Days Following Infection With M. Pneumoniae (M. pneumoniae [3]; [6]): 1.071 ± 0.065 OD/mg | Tetrazolium Reduction 7 Days Following Infection With M. Pneumoniae (M. pneumoniae [3]; [7]): 1.068 ± 0.050 OD/mg | Tetrazolium Reduction 7 Days Following Infection With M. Pneumoniae (M. pneumoniae [3]; [8]): 1.062 ± 0.039 OD/mg | Tetrazolium Reduction 7 Days Following Infection With M. Pneumoniae (M. pneumoniae [3]; [9]): 0.893 ± 0.055 OD/mg | Tetrazolium Reduction 7 Days Following Infection With M. Pneumoniae (M. pneumoniae [3]; [10]): 0.722 ± 0.032 OD/mg | Tetrazolium Reduction 7 Days Following Infection With M. Pneumoniae (M. pneumoniae [3]; [11]): 0.386 ± 0.030 OD/mg | Tetrazolium Reduction 7 Days Following Infection With M. Pneumoniae (M. pneumoniae [3]; [12]): 0.379 ± 0.051 OD/mg | Tetrazolium Reduction 7 Days Following Infection With M. Pneumoniae (M. pneumoniae [3]; [13]): 0.381 ± 0.048 OD/mg | Relative Activity Days Following Infection With M. Pneumoniae (M. pneumoniae [4]; 10^-8 moles/liter, day 1): 270 ± 0 | Relative Activity Days Following Infection With M. Pneumoniae (M. pneumoniae [4]; 10^-8 moles/liter, day 2): 270 ± 0 | Relative Activity Days Following Infection With M. Pneumoniae (M. pneumoniae [4]; 10^-8 moles/liter, day 3): 260 ± 16 | Relative Activity Days Following Infection With M. Pneumoniae (M. pneumoniae [4]; 10^-8 moles/liter, day 4): 260 ± 16 | Relative Activity Days Following Infection With M. Pneumoniae (M. pneumoniae [4]; 10^-8 moles/liter, day 5): 260 ± 16 | Relative Activity Days Following Infection With M. Pneumoniae (M. pneumoniae [4]; 10^-8 moles/liter, day 6): 255 ± 16 | Relative Activity Days Following Infection With M. Pneumoniae (M. pneumoniae [4]; 10^-8 moles/liter, day 7): 255 ± 16 | Relative Activity Days Following Infection With M. Pneumoniae (M. pneumoniae [4]; 10^-10 moles/liter, day 1): 260 ± 16 | Relative Activity Days Following Infection With M. Pneumoniae (M. pneumoniae [4]; 10^-10 moles/liter, day 2): 255 ± 16 | Relative Activity Days Following Infection With M. Pneumoniae (M. pneumoniae [4]; 10^-10 moles/liter, day 3): 240 ± 19 | Relative Activity Days Following Infection With M. Pneumoniae (M. pneumoniae [4]; 10^-10 moles/liter, day 4): 175 ± 23 | Relative Activity Days Following Infection With M. Pneumoniae (M. pneumoniae [4]; 10^-10 moles/liter, day 5): 150 ± 19 | Relative Activity Days Following Infection With M. Pneumoniae (M. pneumoniae [4]; 10^-10 moles/liter, day 6): 135 ± 16 | Relative Activity Days Following Infection With M. Pneumoniae (M. pneumoniae [4]; 10^-10 moles/liter, day 7): 115 ± 23 | Relative Activity 7 days post infection (M. pneumoniae [4]; 10^-6 moles/liter): 255 ± 16 | Relative Activity 7 days post infection (M. pneumoniae [4]; 10^-7 moles/liter): 255 ± 16 | Relative Activity 7 days post infection (M. pneumoniae [4]; 10^-8 moles/liter): 260 ± 10 | Relative Activity 7 days post infection (M. pneumoniae [4]; 10^-9 moles/liter): 263 ± 12 | Relative Activity 7 days post infection (M. pneumoniae [4]; 10^-10 moles/liter): 114 ± 22 | Relative Activity 7 days post infection (M. pneumoniae [4]; 10^-14 moles/liter): 125 ± 23 | Relative Activity 7 days post infection (M. pneumoniae [4]): 124 ± 18 | RA of rings exposed to M. pneumoniae compared with uninfected controls (M. pneumoniae [4]; at least 10^-9 M): indistinguishable from uninfected controls | Relative Activity 7 Days Following Infection With M. Pneumoniae (M. pneumoniae [4]; [6]): 268 ± 6 | Relative Activity 7 Days Following Infection With M. Pneumoniae (M. pneumoniae [4]; [7]): 268 ± 6 | Relative Activity 7 Days Following Infection With M. Pneumoniae (M. pneumoniae [4]; [8]): 265 ± 8 | Relative Activity 7 Days Following Infection With M. Pneumoniae (M. pneumoniae [4]; [9]): 220 ± 23 | Relative Activity 7 Days Following Infection With M. Pneumoniae (M. pneumoniae [4]; [10]): 188 ± 23 | Relative Activity 7 Days Following Infection With M. Pneumoniae (M. pneumoniae [4]; [11]): 98 ± 16 | Relative Activity 7 Days Following Infection With M. Pneumoniae (M. pneumoniae [4]; [12]): 95 ± 12 | Relative Activity 7 Days Following Infection With M. Pneumoniae (M. pneumoniae [4]; [13]): 92 ± 15 | electron microscopic and histopathic examination of epithelium [5]: destruction of their epithelium
